Assay results published in US20200131196A1 (Mount Tam Therapeutics, Inc., priority 2017, published 2020).
Where two headings read alike, the source gives them in different places.

Tests used:
CaOV3 = assay: OncoPanel cell proliferation assay, CaOV3; assay type: cell-based, human
Protocol: (§1) Cells were grown in RPMI 1640, 10% FBS, 2 mM L-alanyl-L-glutamine, 1 mM Na pyruvate, or a special medium. Cells were seeded into 384-well plates and incubated in a humidified atmosphere of 5% CO2 at 37° C. Compounds were added the day following cell seeding. At the same time, a time zero untreated cell plate was generated. After a 3-day incubation period, cells were fixed and stained to allow fluorescence imaging of nuclei. Compounds (1 mM stock solutions) were serially diluted in half-log steps from the highest test concentration ([…]), and assayed over 10 concentrations with a maximum assay concentration of 0.1% DMSO. Automated fluorescence microscopy was carried out using a Molecular Devices ImageXpress Micro XL high-content imager, and images were collected with a 4× objective. 16-bit TIFF images were acquired and analyzed with MetaXpress 5.1.0.41 software.
(§2) Cell proliferation was measured by the fluorescence intensity of an incorporated nuclear dye. The output is referred to as the relative cell count, where the measured nuclear intensity is transformed to percent of control (POC) using the following formula: […]
(§3) Cellular response parameters were calculated using nonlinear regression to a sigmoidal single-site dose response model:
(§4) EC50 is the test compound concentration at the curve inflection point or half the effective response (parameter C of the fitted curve solution). GI50 is the concentration needed to reduce the observed growth by half (midway between the curve maximum and the time zero value). “Cell Count Activity Area” is an estimate of the integrated area above the curve (Barretina, et al. The Cancer Cell Line Encyclopedia enables predictive modelling of anticancer drug sensitivity. Nature 483: 603-607). […] In rare instances, values <0 or >10 may be observed. […] Curve-fitting, calculations, and report generation was performed using a custom data reduction engine and MathIQ based software (AIM).

Hs 852.T = assay: OncoPanel cell proliferation assay, Hs 852.T; assay type: cell-based, human
Protocol: as §1, §2, §3, §4

U-138MG = assay: OncoPanel cell proliferation assay, U-138MG; assay type: cell-based, human
Protocol: as §1, §2, §3, §4

CRO-AP2 = assay: OncoPanel cell proliferation assay, CRO-AP2; assay type: cell-based, human
Protocol: as §1, §2, §3, §4

G-402 = assay: OncoPanel cell proliferation assay, G-402; assay type: cell-based, human
Protocol: as §1, §2, §3, §4

OVCAR3 = assay: OncoPanel cell proliferation assay, OVCAR3
Protocol: Cells were seeded into 384-well plates and incubated in a humidified atmosphere of 5% CO2 at 37° C. Compounds were added the day following cell seeding. At the same time, a time zero untreated cell plate was generated. After a 3-day incubation period, cells were fixed and stained to allow fluorescence imaging of nuclei. Compounds (1 mM stock solutions) were serially diluted in half-log steps from the highest test concentration (1 micromol), and assayed over 10 concentrations with a maximum assay concentration of 0.1% DMSO. Automated fluorescence microscopy was carried out using a Molecular Devices ImageXpress Micro XL high-content imager, and images were collected with a 4× objective. 16-bit TIFF images were acquired and analyzed with MetaXpress 5.1.0.41 software.
GI50 is the concentration needed to reduce the observed growth by half (midway between the curve maximum and the time zero value). […] In rare instances, values <0 or >10 may be observed. […] Curve-fitting, calculations, and report generation was performed using a custom data reduction engine and MathIQ based software (AIM).

786-O = assay: OncoPanel cell proliferation assay, 786-O; assay type: cell-based, human
Protocol: as §1, §2, §3, §4

[1] = Homo sapiens, read-out: Cell Count EC50
[2] = Homo sapiens, read-out: Cell Count GI50
[3] = Homo sapiens, read-out: Cell Count IC50

CO[C@H]1C[C@@H]2CC[C@@H](C)[C@@](O)(O2)C(=O)C(=O)N2CCCC[C@H]2C(=O)O[C@H]([C@H](C)C[C@H]2C[C@H]3C[C@@H]2C[C@@H]3O)CC(=O)[C@H](C)/C=C(\C)[C@@H](O)[C@@H](OC)C(=O)[C@H](C)C[C@H](C)/C=C/C=C/C=C/1C [Formula II, C37-[(1R,2S,4R,5S)-5-hyhroxybicyclo[2.2.1]heptane] rapamycin]
Cell Count Activity Area (CaOV3): 2.53 | Relative cell count (%) Mean (CaOV3; 1.00E+00 microM): 57.7% | Relative cell count (%) Mean (CaOV3; 1.00E-01 microM): 63.1% | Relative cell count (%) Mean (CaOV3; 1.00E-02 microM): 73.9% | Relative cell count (%) Mean (CaOV3; 1.00E-03 microM): 76.4% | Relative cell count (%) Mean (CaOV3; 1.01E-04 microM): 98.2% | Relative cell count (%) Mean (CaOV3; 3.16E-01 microM): 60.5% | Relative cell count (%) Mean (CaOV3; 3.17E-02 microM): 64.6% | Relative cell count (%) Mean (CaOV3; 3.17E-03 microM): 78.3% | Relative cell count (%) Mean (CaOV3; 3.18E-04 microM): 76.6% | Relative cell count (%) Mean (CaOV3; 3.18E-05 microM): 97.5% | EC50 (CaOV3; Homo sapiens, Caov-3, read-out: Cell Count EC50): 1.59 nM | GI50 (CaOV3; Homo sapiens, Caov-3, read-out: Cell Count GI50): 47.7 nM | IC50 (CaOV3; Homo sapiens, Caov-3, read-out: Cell Count IC50): > 1000 nM | Cell Count Activity Area (Hs 852.T): 0.95 | Relative cell count (%) Mean (Hs 852.T; 1.00E+00 microM): 72.0% | Relative cell count (%) Mean (Hs 852.T; 1.00E-01 microM): 80.1% | Relative cell count (%) Mean (Hs 852.T; 1.00E-02 microM): 91.2% | Relative cell count (%) Mean (Hs 852.T; 1.00E-03 microM): 92.9% | Relative cell count (%) Mean (Hs 852.T; 1.01E-04 microM): 98.7% | Relative cell count (%) Mean (Hs 852.T; 3.16E-01 microM): 73.2% | Relative cell count (%) Mean (Hs 852.T; 3.17E-02 microM): 82.3% | Relative cell count (%) Mean (Hs 852.T; 3.17E-03 microM): 90.6% | Relative cell count (%) Mean (Hs 852.T; 3.18E-04 microM): 92.8% | Relative cell count (%) Mean (Hs 852.T; 3.18E-05 microM): 95.0% | EC50 (Hs 852.T; [1]): > 1000 nM | GI50 (Hs 852.T; [2]): > 1000 nM | IC50 (Hs 852.T; [3]): > 1000 nM | EC50 (U-138MG; Homo sapiens, U138-MG, U-138 MG, CNS, Glioblastoma, summary Table 5, read-out: EC50): 1.4 nM | EC50 (U-138MG; Homo sapiens, U138-MG, U-138MG, read-out: Cell Count EC50): 1.44 nM | GI50 (U-138MG; Homo sapiens, U138-MG, U-138MG, read-out: Cell Count GI50): 23 nM | IC50 (U-138MG; Homo sapiens, U138-MG, U-138MG, read-out: Cell Count IC50): > 1000 nM | Cell Count Activity Area (U-138MG; U-138MG): 2.59 | Relative cell count (%) Mean (U-138MG; U-138MG, 1.00E+00 microM): 60.4% | Relative cell count (%) Mean (U-138MG; U-138MG, 1.00E-01 microM): 67.9% | Relative cell count (%) Mean (U-138MG; U-138MG, 1.00E-02 microM): 76.4% | Relative cell count (%) Mean (U-138MG; U-138MG, 1.00E-03 microM): 74.8% | Relative cell count (%) Mean (U-138MG; U-138MG, 1.01E-04 microM): 87.7% | Relative cell count (%) Mean (U-138MG; U-138MG, 3.16E-01 microM): 65.0% | Relative cell count (%) Mean (U-138MG; U-138MG, 3.17E-02 microM): 69.1% | Relative cell count (%) Mean (U-138MG; U-138MG, 3.17E-03 microM): 73.8% | Relative cell count (%) Mean (U-138MG; U-138MG, 3.18E-04 microM): 78.5% | Relative cell count (%) Mean (U-138MG; U-138MG, 3.18E-05 microM): 87.8% | Cell Count Activity Area (CRO-AP2): 4.89 | Relative cell count (%) Mean (CRO-AP2; 1.00E+00 microM): 24.8% | Relative cell count (%) Mean (CRO-AP2; 1.00E-01 microM): 27.5% | Relative cell count (%) Mean (CRO-AP2; 1.00E-02 microM): 34.9% | Relative cell count (%) Mean (CRO-AP2; 1.00E-03 microM): 65.3% | Relative cell count (%) Mean (CRO-AP2; 1.01E-04 microM): 100.6% | Relative cell count (%) Mean (CRO-AP2; 3.16E-01 microM): 24.7% | Relative cell count (%) Mean (CRO-AP2; 3.17E-02 microM): 27.0% | Relative cell count (%) Mean (CRO-AP2; 3.17E-03 microM): 47.3% | Relative cell count (%) Mean (CRO-AP2; 3.18E-04 microM): 81.8% | Relative cell count (%) Mean (CRO-AP2; 3.18E-05 microM): 98.0% | EC50 (CRO-AP2; [1]): 1.07 nM | GI50 (CRO-AP2; [2]): 1.65 nM | IC50 (CRO-AP2; [3]): 2.21 nM | Cell Count Activity Area (G-402): 4.75 | Relative cell count (%) Mean (G-402; 1.00E+00 microM): 25.8% | Relative cell count (%) Mean (G-402; 1.00E-01 microM): 28.4% | Relative cell count (%) Mean (G-402; 1.00E-02 microM): 40.5% | Relative cell count (%) Mean (G-402; 1.00E-03 microM): 63.7% | Relative cell count (%) Mean (G-402; 1.01E-04 microM): 100.0% | Relative cell count (%) Mean (G-402; 3.16E-01 microM): 27.5% | Relative cell count (%) Mean (G-402; 3.17E-02 microM): 36.6% | Relative cell count (%) Mean (G-402; 3.17E-03 microM): 52.6% | Relative cell count (%) Mean (G-402; 3.18E-04 microM): 86.8% | Relative cell count (%) Mean (G-402; 3.18E-05 microM): 97.8% | EC50 (G-402; [1]): 1.13 nM | GI50 (G-402; [2]): 1.51 nM | IC50 (G-402; [3]): 2.87 nM | EC50 (OVCAR3; Homo sapiens): 43 nM | EC50 (OVCAR3; Homo sapiens, OVCAR-3, read-out: Cell Count EC50): 42.6 nM | GI50 (OVCAR3; Homo sapiens, OVCAR-3, read-out: Cell Count GI50): 301 nM | IC50 (OVCAR3; Homo sapiens, OVCAR-3, read-out: Cell Count IC50): > 1000 nM | Cell Count Activity Area (OVCAR3; OVCAR3): 1.09 | Relative cell count (%) Mean (OVCAR3; OVCAR3, 1.00E+00 microM): 70.8% | Relative cell count (%) Mean (OVCAR3; OVCAR3, 1.00E-01 microM): 79.0% | Relative cell count (%) Mean (OVCAR3; OVCAR3, 1.00E-02 microM): 104.2% | Relative cell count (%) Mean (OVCAR3; OVCAR3, 1.00E-03 microM): 101.9% | Relative cell count (%) Mean (OVCAR3; OVCAR3, 1.01E-04 microM): 116.6% | Relative cell count (%) Mean (OVCAR3; OVCAR3, 3.16E-01 microM): 69.1% | Relative cell count (%) Mean (OVCAR3; OVCAR3, 3.17E-02 microM): 88.4% | Relative cell count (%) Mean (OVCAR3; OVCAR3, 3.17E-03 microM): 98.5% | Relative cell count (%) Mean (OVCAR3; OVCAR3, 3.18E-04 microM): 100.4% | Relative cell count (%) Mean (OVCAR3; OVCAR3, 3.18E-05 microM): 99.9% | Relative cell count (%) Mean (786-O; 786-0, 1.00E+00 microM): 36.7% | Relative cell count (%) Mean (786-O; 786-0, 1.00E-01 microM): 45.5% | Relative cell count (%) Mean (786-O; 786-0, 1.00E-02 microM): 55.7% | Relative cell count (%) Mean (786-O; 786-0, 1.00E-03 microM): 78.6% | Relative cell count (%) Mean (786-O; 786-0, 1.01E-04 microM): 92.0% | Relative cell count (%) Mean (786-O; 786-0, 3.16E-01 microM): 43.3% | Relative cell count (%) Mean (786-O; 786-0, 3.17E-02 microM): 48.2% | Relative cell count (%) Mean (786-O; 786-0, 3.17E-03 microM): 65.0% | Relative cell count (%) Mean (786-O; 786-0, 3.18E-04 microM): 80.1% | Relative cell count (%) Mean (786-O; 786-0, 3.18E-05 microM): 96.8% | Cell Count Activity Area (786-O; 786-O): 4.01 | EC50 (786-O; Homo sapiens, 786-0, 786-O, read-out: Cell Count EC50): 1.59 nM | GI50 (786-O; Homo sapiens, 786-0, 786-O, read-out: Cell Count GI50): 7.1 nM
